# Measurements reported in patent US7399744B2, “Methods for affecting body composition” (Amylin Pharmaceuticals, Inc., priority 2004, dated 2008).
# pEC50: −log10 of the molar value. Marks after values point to notes of the source that are not given here. Ends that are not written are not given here.
# Experiments:
# [1] = Amylin or sibutramine by 28-day osmotic pump in high fat-fed rats (Example 1); type: in vivo, rat; conditions: for Body Weight / Caloric Intake: amylin 300 μg/kg/day or sibutramine 3 mg/kg/day, s.c. 28-day osmotic pump, high fat-fed rats, vs high fat-fed controls
# Method: (§1) Low fat-fed rats (11% kcal from fat, D12329, Research Diets) were also implanted with pumps delivering vehicle. Food intake and body weight measurements were obtained weekly.
# Rats were sacrificed by cardiac puncture under anesthesia. Triglyceride levels were measured on a COBAS Mira plasma analyzer (Roche), and leptin and insulin were assayed according to Linco Research rat RIA kits. Body composition was measured by chemical analysis (Covance Laboratories, Madison, Wis.).
# All data are represented as mean±SEM. Analysis of variance was used to test for group differences.
# The rats were fattened for 10 weeks prior to drug treatment. The high fat-fed rats were designated as obesity-prone (top 50% of weight gainers) or obesity-resistant (bottom 50%) based on the amount of weight gained through week 7.
# In this study, an obesity-prone/obesity-resistant difference in drug interaction was found for protein weight in amylin-treated rats, and thus body composition parameters were measured separately in obesity-prone and obesity-resistant animals in each drug group (FIGS. 2A and 2B).
# [2] = Three doses of amylin by osmotic pump in high fat-fed rats (Example 2); type: in vivo, rat; conditions: for Body Weight / Caloric Intake: high fat-fed rats, vs high fat-fed controls
# From the text: as §1
# [3] = Chronic amylin infusion vs pair-feeding in lean HSD rats (Example 3); type: in vivo, rat
# Method: Lean, male Harlan SPRAGLE DAWLEY® (HSD) (Harlan 7012) rats were maintained on “standard chow” (˜5% calories from fat).
# Food intake and body weight were recorded daily (FIGS. 5, 6A, 6B, 7, 8A, and 8B).
# On the final day of the experiment, rats were deeply anaesthetized and sacrificed by cardiac puncture. Plasma triglycerides, glucose, and cholesterol were measured on a COBAS Mira plasma Analyzer (Roche). Plasma leptin and insulin were measured using Linco Research kits. (See, FIGS. 9A-9F and 10A-10E.) Body composition was measured by chemical analysis (Covance Laboratories, Madison, Wis.). Fat pad weights of the epididymal, retroperitoneal, subcutaneous, and perirenal fat pads (all unilateral; analysis only done in DIO animals) were carefully dissected and weighed (FIGS. 12A-12D). In analyzing the tissue biochemistry, […] were powdered under liquid N2 and extracted in chloroform:methanol. 0.6% NaCl solution was then added and the tubes were vortexed, centrifuged, and the organic phase was transferred to glass scintillation vials and dried under a stream of N2. Dried lipids were resuspended and triglycerides were quantified by enzymatic assay (Pointe Scientific, Inc.). Tissue glycogen was measured by the amyloglucosidase method. (See FIGS. 11A-11D.)
# All data are represented as mean±SEM. Analysis of variance (ANOVA) and Bonferroni post-hoc tests were used to test for group differences (SYSTAT® for Windows). A P-value <0.05 was considered significant. Graphs were generated using PRISM® 4 for Windows (Graphpad Software).
# [4] = Chronic amylin infusion vs pair-feeding in DIO Levin rats (Example 3); type: in vivo, rat; set-up: reduction in body weight relative to vehicle controls / Weight (g) / Ash (%): dose or concentration left out as unconfirmed
# [5] = Amylin with prior or concurrent food restriction in retired female breeder rats (Example 4); type: in vivo, rat; conditions: for % Change in fat / % Change in protein / Estimated Mean Weight change from treatment: amylin 100 μg/kg/day, retired female breeder rats, high fat diet
# From the text: Retired female breeder rats were maintained on a high fat diet (40% fat) for 8 weeks. Prior to drug treatment, rats were either ad-lib fed or food restricted to 95% of their starting body weight.
# Changes in body weight and body composition are summarized in the table below and depicted in FIGS. 13A-13P.
# [6] = Amylin versus pramlintide in DIO Levin rats (Example 5); type: in vivo, rat; conditions: 76 nmol/kg/day by osmotic mini-pump for 24 days
# Method: 48 DIO Levin rats (an in-bred model of diet induced obesity) were used in this study. […] Food intake and body weight was measured daily. […] The pair-fed groups were only allowed to consume the daily intakes of their respective drug-treated groups. For body composition, rats were scanned in a rodent NMR before treatment and after sacrifice (at the end of the study), allowing for the ability to calculate changes in carcass fat and protein (e.g., lean tissue).
# [7] = system: insulin-stimulated glycogen synthesis in soleus muscle; assay: Soleus muscle assay; type: cell-based; conditions: rat soleus muscle, inhibition of glucose incorporation into glycogen
# Method: Concentrations of peptide dissolved in carrier-free buffers are determined by quantitative amino acid analysis, as described therein. The ability of compounds to act as agonists in this assay is determined by measuring EC50 values. […] Similar results were obtained with other agonist compounds listed above.
# [8] = amylin 300 mg/kg/day, s.c. 28-day osmotic pump, body composition by chemical analysis
# [9] = DIO rats, amylin 300 mg/kg/day, s.c. 28-day osmotic pump, body composition by chemical analysis
# [10] = food access prior Ad-lib, during Ad-lib
# [11] = food access prior Ad-lib, during Restricted
# [12] = food access prior Restricted, during Ad-lib
# [13] = food access prior Restricted, during Restricted
substance,measurement,setting,value
"amylin: Amylin synthesized by Amylin Pharmaceuticals, Inc. by solid-phase chemistry; species not stated (KCNTATCATQRLANFLVHSSNNFGAILSSTNVGSNTY; not fully specified (C-terminus, bridges); cysteine pairing not given here; UniProt P10997 34-70, looked up)",Body Weight,[1]; Week 1,6%*
same,Caloric Intake,[1]; Week 1,45%*
same,Body Weight,[1]; Week 2,7%*
same,Caloric Intake,[1]; Week 2,14%*
same,Body Weight,[1]; Week 3,8%*
same,Caloric Intake,[1]; Week 3,10%*
same,Body Weight,[1]; Week 4,8%*
same,Caloric Intake,[1]; Week 4,10%*
same,tolerance/resistance,[1]; administered by osmotic pump,did not induce tolerance/resistance
same,protein compared to the control group (vehicle only),[1]; obesity-prone rats,increase
same,body weight gain,[2]; 30 μg/kg/day,reduction
same,Body Weight,"[2]; 30 μg/kg/day amylin, Week 1",5%*
same,Caloric Intake,"[2]; 30 μg/kg/day amylin, Week 1",32%*
same,Body Weight,"[2]; 30 μg/kg/day amylin, Week 2",7%*
same,Caloric Intake,"[2]; 30 μg/kg/day amylin, Week 2",17%*
same,Body Weight,"[2]; 30 μg/kg/day amylin, Week 3",7%*
same,Caloric Intake,"[2]; 30 μg/kg/day amylin, Week 3",10%
same,Body Weight,"[2]; 30 μg/kg/day amylin, Week 4",7%*
same,Caloric Intake,"[2]; 30 μg/kg/day amylin, Week 4",8%
same,Body Weight,"[2]; 100 μg/kg/day amylin, Week 1",10%*
same,Caloric Intake,"[2]; 100 μg/kg/day amylin, Week 1",45%*
same,Body Weight,"[2]; 100 μg/kg/day amylin, Week 2",10%*
same,Caloric Intake,"[2]; 100 μg/kg/day amylin, Week 2",19%*
same,Body Weight,"[2]; 100 μg/kg/day amylin, Week 3",9%*
same,Caloric Intake,"[2]; 100 μg/kg/day amylin, Week 3",4%
same,Body Weight,"[2]; 100 μg/kg/day amylin, Week 4",8%*
same,Caloric Intake,"[2]; 100 μg/kg/day amylin, Week 4",9%
same,Body Weight,"[2]; 300 μg/kg/day amylin, Week 1",7%*
same,Caloric Intake,"[2]; 300 μg/kg/day amylin, Week 1",41%*
same,Body Weight,"[2]; 300 μg/kg/day amylin, Week 2",8%*
same,Caloric Intake,"[2]; 300 μg/kg/day amylin, Week 2",15%*
same,Body Weight,"[2]; 300 μg/kg/day amylin, Week 3",10%*
same,Caloric Intake,"[2]; 300 μg/kg/day amylin, Week 3",19%*
same,Body Weight,"[2]; 300 μg/kg/day amylin, Week 4",12%*
same,Caloric Intake,"[2]; 300 μg/kg/day amylin, Week 4",19%*
same,effects on food intake and body weight across doses,"[2]; 30, 100 and 300 μg/kg/day",dose-dependent
same,percent body fat relative to pair-fed,[3],lower
same,percent protein,[3],remained relatively constant
same,weight gain compared to vehicle rats,[3],significant reduction
same,reduction in body weight relative to vehicle controls,"[3]; amylin 300 μg/kg/day, osmotic pump",12%
same,Fat (%),"[3]; amylin 300 μg/kg/day, s.c. 28-day osmotic pump, body composition by chemical analysis",7.2 ± 1.5 %
same,Weight (g),"[3]; amylin 300 μg/kg/day, s.c. 28-day osmotic pump, end of study",392.25* g
same,Moisture (%),[3]; [8],67.57 ± 0.7 %
same,Protein (%),[3]; [8],20.67 ± 0.74%
same,percent body fat,[4]; DIO rats,significant decrease
same,percent protein,[4]; DIO rats,significant preservation or gain
same,weight gain compared to vehicle rats,[4]; DIO rats,significant reduction
same,Fat (%),[4]; [9],24.3 ± 6.5 %
same,Moisture (%),[4]; [9],56.68 ± 4.4 %
same,Protein (%),[4]; [9],18.09 ± 1.68 %
same,reduction in body weight relative to vehicle controls,"[4]; DIO rats, osmotic pump",12%
same,Ash (%),"[4]; DIO rats, s.c. 28-day osmotic pump, body composition by chemical analysis",1.65 ± 0.34%
same,Weight (g),"[4]; DIO rats, s.c. 28-day osmotic pump, end of study",548.94* g
same,muscle glycogen content,"[4]; tissue biochemistry, amyloglucosidase method",significantly reduced
same,food intake versus vehicle treated counterparts,[5]; FIGS. 13E-13H,ate less
same,Body Weight,[5]; all treatment conditions,significantly reduced
same,percent protein,[5]; except in ad-lib fed then food restricted group,increases
same,percent body fat,[5]; except in chronically restricted animals,significant decreases
same,% Change in fat,[5]; [10],−10.1 ± 0.5%
same,% Change in protein,[5]; [10],0.8 ± 0.1%
same,Estimated Mean Weight change from treatment,[5]; [10],-21.8 ± 1.4 g
same,% Change in fat,[5]; [11],−9.9 ± 0.9%
same,% Change in protein,[5]; [11],0.7 ± 0.1%
same,Estimated Mean Weight change from treatment,[5]; [11],-23.1 ± 2.3 g
same,% Change in fat,[5]; [12],−11.5 ± 0.6%
same,% Change in protein,[5]; [12],1.1 ± 0.1%
same,Estimated Mean Weight change from treatment,[5]; [12],-18.2 ± 2.5 g
same,% Change in fat,[5]; [13],−11.1 ± 1.0%
same,% Change in protein,[5]; [13],1.0 ± 0.1%
same,Estimated Mean Weight change from treatment,[5]; [13],-17.1 ± 2.0 g
same,slowing body weight gain,[6],significant effect
same,effects on body composition,[6]; rodent NMR,favorable effects
"^2,37h-Amylin",pEC50,[7],8.79
